The results in this text go back to patent US20250368666A1, “INDAZOLE COMPOUNDS” (TYRA BIOSCIENCES, INC., priority 2022, published 2025).

Molecules are shown by their SMILES. Structures can show the parent of a compound that is named as a salt. Where two headings read alike, the source gives them in different places.

One assay has as its target T1, FGFR1 (Homo sapiens, UniProt P11362).
T1 construct: made in house; host or cells: E. coli (BL21-derived), T7 phage
The assay can be described thus: Kinase binding assay (kinase-tagged T7 phage, affinity beads, qPCR), Kd. Conditions: read-out: FGFR1 (Kd nM). The protocol:
(§1) Kinase-tagged T7 phage strains were prepared in an E. coli host derived from the BL21 strain. E. coli were grown to log-phase and infected with T7 phage and incubated with shaking at 32° C. until lysis. The lysates were centrifuged and filtered to remove cell debris. Streptavidin-coated magnetic beads were treated with biotinylated small molecule ligands for 30 minutes at room temperature to generate affinity resins for kinase assays. The liganded beads were blocked with excess biotin and washed with blocking buffer SeaBlock (Pierce), 1% BSA, 0.05% Tween 20, 1 mM DTT to remove unbound ligand and to reduce non-specific binding.
(§2) Test compounds were prepared as 111× stocks in 100% DMSO. Kds were determined using an 11-point 3-fold compound dilution series with three DMSO control points. […] The compounds were then diluted directly into the assays such that the final concentration of DMSO was 0.9%. All reactions performed in polypropylene 384-well plate. Each was a final volume of 0.02 ml. […] The kinase concentration in the eluates was measured by qPCR.
(§3) Binding constants were calculated with a standard dose-response curve using the Hill equation: […]
(§4) The Hill Slope was set to −1. Curves were fitted using a non-linear least square fit with the Levenberg-Marquardt algorithm.
Background: Real-time PCR tracks product formation cycle by cycle.

For the next assay, the target named is T2, FGFR3 (Homo sapiens, UniProt P22607).
T2 construct: made in house; host or cells: E. coli (BL21-derived), T7 phage
T2 sequence (P22607 23-806): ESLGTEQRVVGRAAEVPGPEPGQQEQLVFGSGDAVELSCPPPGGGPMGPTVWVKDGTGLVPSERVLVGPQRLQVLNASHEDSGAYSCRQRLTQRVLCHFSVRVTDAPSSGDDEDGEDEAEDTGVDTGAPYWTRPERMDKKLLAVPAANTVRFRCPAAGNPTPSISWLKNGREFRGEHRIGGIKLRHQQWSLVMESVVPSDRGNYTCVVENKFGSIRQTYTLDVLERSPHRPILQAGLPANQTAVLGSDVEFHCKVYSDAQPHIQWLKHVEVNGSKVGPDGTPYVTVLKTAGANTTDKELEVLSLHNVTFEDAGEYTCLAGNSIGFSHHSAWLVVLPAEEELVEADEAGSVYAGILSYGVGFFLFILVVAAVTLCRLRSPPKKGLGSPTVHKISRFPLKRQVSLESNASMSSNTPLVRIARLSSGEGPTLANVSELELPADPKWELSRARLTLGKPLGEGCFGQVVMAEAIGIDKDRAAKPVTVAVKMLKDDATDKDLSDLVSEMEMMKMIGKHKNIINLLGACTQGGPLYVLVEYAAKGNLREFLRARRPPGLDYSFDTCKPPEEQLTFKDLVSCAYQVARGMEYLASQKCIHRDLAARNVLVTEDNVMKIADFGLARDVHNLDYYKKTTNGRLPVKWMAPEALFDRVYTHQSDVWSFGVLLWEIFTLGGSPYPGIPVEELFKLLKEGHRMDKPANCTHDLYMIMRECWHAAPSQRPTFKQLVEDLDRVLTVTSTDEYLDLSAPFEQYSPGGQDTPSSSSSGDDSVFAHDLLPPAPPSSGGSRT
The description is as above. Conditions: read-out: FGFR3 (Kd nM). The protocol: as §1, §2, §3, §4

The mark [1] stands for this setting: kinase binding assay, 11-point 3-fold dilution series.

T1 sequence (P11362 22-822): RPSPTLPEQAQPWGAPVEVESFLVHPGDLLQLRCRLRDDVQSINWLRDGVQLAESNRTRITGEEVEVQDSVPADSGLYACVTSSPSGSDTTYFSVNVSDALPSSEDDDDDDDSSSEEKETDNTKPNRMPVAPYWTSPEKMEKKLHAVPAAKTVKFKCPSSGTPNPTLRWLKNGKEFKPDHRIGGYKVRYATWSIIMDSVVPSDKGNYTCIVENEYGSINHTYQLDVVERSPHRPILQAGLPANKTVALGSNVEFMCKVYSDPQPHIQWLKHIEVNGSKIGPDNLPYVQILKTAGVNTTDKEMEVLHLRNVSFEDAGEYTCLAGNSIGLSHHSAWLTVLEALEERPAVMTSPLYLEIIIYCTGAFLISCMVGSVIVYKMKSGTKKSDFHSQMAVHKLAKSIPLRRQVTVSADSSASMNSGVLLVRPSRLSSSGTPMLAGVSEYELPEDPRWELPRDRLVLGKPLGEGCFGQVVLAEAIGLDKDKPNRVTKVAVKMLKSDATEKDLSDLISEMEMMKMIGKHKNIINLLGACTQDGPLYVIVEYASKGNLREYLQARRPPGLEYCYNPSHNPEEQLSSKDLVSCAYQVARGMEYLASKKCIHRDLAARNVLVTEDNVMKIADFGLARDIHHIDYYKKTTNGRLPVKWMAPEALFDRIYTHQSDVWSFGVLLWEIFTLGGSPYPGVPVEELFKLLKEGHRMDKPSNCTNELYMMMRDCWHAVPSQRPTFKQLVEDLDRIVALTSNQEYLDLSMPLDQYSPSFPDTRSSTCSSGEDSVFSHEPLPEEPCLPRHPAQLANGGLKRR

Consider `COc1cc2[nH]nc(-c3cnc(N4CCC(C)(N)CC4)c(F)c3)c2cc1O[C@H](C)c1c(Cl)cncc1Cl` [Example 383, (R)-1-(5-(5-(1-(3,5-dichloropyridin-4-yl)ethoxy)-6-methoxy-1H-indazol-3-yl)-3-fluoropyridin-2-yl)-4-methylpiperidin-4-amine], for which the Kd on FGFR1 (setting [1]) and at FGFR3 (setting [1]) was 1 to 50 nM in each case.
Take `COc1cc2[nH]nc(-c3cnc(N4CC(C)(N)C4)nc3)c2cc1O[C@H](C)c1c(Cl)cncc1Cl` [Example 302, (R)-1-(5-(5-(1-(3,5-dichloropyridin-4-yl)ethoxy)-6-methoxy-1H-indazol-3-yl)pyrimidin-2-yl)-3-methylazetidin-3-amine]: the Kd on FGFR1 and on FGFR3 was 1 to 50 nM each time.
`C[C@@H](Oc1ccc2[nH]nc(-c3cnc(N4CC[C@](N)(Cc5ccn(C)n5)C4)c(F)c3)c2c1)c1c(Cl)cncc1Cl` [Example 428, (S)-1-(5-(5-((R)-1-(3,5-dichloropyridin-4-yl)ethoxy)-1H-indazol-3-yl)-3-fluoropyridin-2-yl)-3-((1-methyl-1H-pyrazol-3-yl)methyl)pyrrolidin-3-amine]: the Kd on FGFR1 (setting [1]) and at FGFR3 (setting [1]) was 1 to 50 nM in each case.
For the compound `COc1cc2[nH]nc(-c3cnc(N4CC[C@@](C)(N)C4)c(F)c3)c2cc1O[C@H](C)c1c(Cl)cncc1Cl` [Example 315, (R)-1-(5-(5-((R)-1-(3,5-dichloropyridin-4-yl)ethoxy)-6-methoxy-1H-indazol-3-yl)-3-fluoropyridin-2-yl)-3-methylpyrrolidin-3-amine], the Kd at FGFR1 and at FGFR3 was 1 to 50 nM in each case.
Take `C[C@@H](Oc1ccc2[nH]nc(-c3ccc(N4CC(N)(CCCO)C4)nn3)c2c1)c1c(Cl)cncc1Cl` [Example 372, (R)-3-(3-amino-1-(6-(5-(1-(3,5-dichloropyridin-4-yl)ethoxy)-1H-indazol-3-yl)pyridazin-3-yl)azetidin-3-yl)propan-1-ol]: the Kd on FGFR1 and at FGFR3 was 1 to 50 nM throughout.
For the compound `C[C@@H](Oc1ccc2[nH]nc(-c3ccc(N4CC(N)(CC(C)(C)O)C4)nc3)c2c1)c1c(Cl)cncc1Cl` [Example 278, (R)-1-(3-amino-1-(5-(5-(1-(3,5-dichloropyridin-4-yl)ethoxy)-1H-indazol-3-yl)pyridin-2-yl)azetidin-3-yl)-2-methylpropan-2-ol], the Kd on FGFR1 and at FGFR3 was 1 to 50 nM throughout.
Turning to `C[C@@H](Oc1ccc2[nH]nc(-c3ccc(N4CC[C@@](N)(c5ccnn5C)C4)nn3)c2c1)c1c(Cl)cncc1Cl` [Example 417, (S)-1-(6-(5-((R)-1-(3,5-dichloropyridin-4-yl)ethoxy)-1H-indazol-3-yl)pyridazin-3-yl)-3-(1-methyl-1H-pyrazol-5-yl)pyrrolidin-3-amine], the Kd at FGFR1 (setting [1]) and at FGFR3 (setting [1]) was 1 to 50 nM each time.
In the case of `COc1cc2[nH]nc(-c3ccc(N4CC(C)(N)C4)nc3)c2cc1O[C@H](C)c1c(Cl)cncc1Cl` [Example 379, (R)-1-(5-(5-(1-(3,5-dichloropyridin-4-yl)ethoxy)-6-methoxy-1H-indazol-3-yl)pyridin-2-yl)-3-methylazetidin-3-amine], the Kd on FGFR1 and at FGFR3 was 1 to 50 nM each time.
For `C[C@@H](Oc1ccc2[nH]nc(-c3cnc(N4CC(N)(CCCO)C4)c(F)c3)c2c1)c1c(Cl)cncc1Cl` [Example 307, (R)-3-(3-amino-1-(5-(5-(1-(3,5-dichloropyridin-4-yl)ethoxy)-1H-indazol-3-yl)-3-fluoropyridin-2-yl)azetidin-3-yl)propan-1-ol], the Kd on FGFR1 and at FGFR3 was 1 to 50 nM throughout.
Take `C[C@@H](Oc1ccc2[nH]nc(-c3cnc(N4CC(N)(CC5CCCO5)C4)c(F)c3)c2c1)c1c(Cl)cncc1Cl` (stereo partly drawn) [Example 288, 1-(5-(5-((R)-1-(3,5-dichloropyridin-4-yl)ethoxy)-1H-indazol-3-yl)-3-fluoropyridin-2-yl)-3-((tetrahydrofuran-2-yl)methyl)azetidin-3-amine]: the Kd at FGFR1 and on FGFR3 was 1 to 50 nM each time.
In the case of `COc1cc2[nH]nc(-c3cnc(N4CC[C@](C)(N)C4)c(F)c3)c2cc1O[C@H](C)c1c(Cl)cncc1Cl` [Example 389, (S)-1-(5-(5-((R)-1-(3,5-dichloropyridin-4-yl)ethoxy)-6-methoxy-1H-indazol-3-yl)-3-fluoropyridin-2-yl)-3-methylpyrrolidin-3-amine], the Kd on FGFR1 (setting [1]) and at FGFR3 (setting [1]) was 1 to 50 nM in each case.
In the case of `COCC1(N)CN(c2ncc(-c3n[nH]c4ccc(O[C@H](C)c5c(Cl)cncc5Cl)cc34)cc2F)C1` [Example 371, 1-[5-[5-[(1R)-1-(3,5-dichloro-4-pyridyl)ethoxy]-1H-indazol-3-yl]-3-fluoro-2-pyridyl]-3-(methoxy-methyl)aze-tidin-3-amine], the Kd at FGFR1 and at FGFR3 was 1 to 50 nM each time.
For `CC[C@@]1(N)CCN(c2ccc(-c3n[nH]c4ccc(O[C@H](C)c5c(Cl)cncc5Cl)cc34)nn2)C1` [Example 402, (R)-1-(6-(5-((R)-1-(3,5-dichloropyridin-4-yl)ethoxy)-1H-indazol-3-yl)pyridazin-3-yl)-3-ethylpyrrolidin-3-amine], the Kd on FGFR1 (setting [1]) and at FGFR3 (setting [1]) was 1 to 50 nM in each case.
With `Cc1ncc(Cl)c([C@@H](C)Oc2ccc3[nH]nc(-c4cnc(N5CC(CC#N)(NCC(C)C)C5)c(F)c4)c3c2)c1Cl` [Example 254, (R)-2-(1-(5-(5-(1-(3,5-Dichloro-2-methylpyridin-4-yl)ethoxy)-1H-indazol-3-yl)-3-fluoropyridin-2-yl)-3-(iso-butylamino)azeti-din-3-yl)acetonitrile], the Kd at FGFR1 is 50 to 300 nM; on FGFR3, 1 to 50 nM.
For `C[C@@H](Oc1ccc2[nH]nc(-c3ccc(N4CCC(N)(CCS(C)(=O)=O)CC4)nn3)c2c1)c1c(Cl)cncc1Cl` [Example 398, (R)-1-(6-(5-(1-(3,5-dichloropyridin-4-yl)ethoxy)-1H-indazol-3-yl)pyridazin-3-yl)-4-(2-(methylsulfonyl)ethyl) piperidin-4-amine], the Kd at FGFR1 (setting [1]) and at FGFR3 (setting [1]) was 1 to 50 nM throughout.
Take `C[C@@H](Oc1ccc2[nH]nc(-c3ccc(N4CCC(N)(c5ccnn5C)C4)nn3)c2c1)c1c(Cl)cncc1Cl` (stereo in doubt) [Example 416, (R)-1-(6-(5-((R)-1-(3,5-dichloropyridin-4-yl)ethoxy)-1H-indazol-3-yl)pyridazin-3-yl)-3-(1-methyl-1H-pyrazol-5-yl)pyrrolidin-3-amine]: the Kd at FGFR1 (setting [1]) and at FGFR3 (setting [1]) was 1 to 50 nM each time.
On to `C[C@@H](Oc1ccc2[nH]nc(-c3ccc(N4CC(N)(CC(F)F)C4)nn3)c2c1)c1c(Cl)cncc1Cl` [Example 397, (R)-1-(6-(5-(1-(3,5-dichloropyridin-4-yl)ethoxy)-1H-indazol-3-yl)pyridazin-3-yl)-3-(2,2-difluoro-ethyl)azetidin-3-amine], for which the Kd at FGFR1 (setting [1]) and on FGFR3 (setting [1]) was 1 to 50 nM in each case.
As to `C[C@@H](Oc1ccc2[nH]nc(-c3ccc(N4CC[C@@](C)(N)C4)nn3)c2c1)c1c(Cl)cncc1Cl` [Example 406, (R)-1-(6-(5-((R)-1-(3,5-dichloropyridin-4-yl)ethoxy)-1H-indazol-3-yl)pyridazin-3-yl)-3-methylpyrrolidin-3-amine], the Kd at FGFR1 (setting [1]) and on FGFR3 (setting [1]) was 1 to 50 nM in each case.
As to `C[C@@H](Oc1ccc2[nH]nc(-c3cnc(N4CC(C)(NCC(=O)N(C)C)C4)c(F)c3)c2c1)c1c(Cl)cncc1Cl` [Example 311, (R)-2-((1-(5-(5-(1-(3,5-dichloropyridin-4-yl)ethoxy)-1H-indazol-3-yl)-3-fluoropyridin-2-yl)-3-methylazetidin-3-yl)amino)-N,N-dimethylacetamide], the Kd on FGFR1 and on FGFR3 was 1 to 50 nM in each case.
Regarding `C[C@@H](Oc1ccc2[nH]nc(-c3cnc(N4CC[C@](C)(N)C4)c(F)c3)c2c1)c1c(Cl)cncc1Cl` [Example 396, (S)-1-(5-(5-((R)-1-(3,5-dichloropyridin-4-yl)ethoxy)-1H-indazol-3-yl)-3-fluoropyridin-2-yl)-3-methylpyrrolidin-3-amine], the Kd on FGFR1 (setting [1]) and on FGFR3 (setting [1]) was 1 to 50 nM each time.
Take `CC(C)CNC1(CC#N)CN(c2ncc(-c3n[nH]c4ccc(O[C@H](C)c5c(Cl)cncc5Cl)cc34)cc2F)C1` [Example 253, (R)-2-(1-(5-(5-(1-(3,5-Dichloropyridin-4-yl)ethoxy)-1H-indazol-3-yl)-3-fluoropyridin-2-yl)-3-(iso-butylamino)azeti-din-3-yl)acetonitrile dihydrochloride]: the Kd at FGFR1 lay within 50 to 300 nM; at FGFR3, 1 to 50 nM.
For `C[C@@H](Oc1ccc2[nH]nc(-c3cnc(N4CC(N)(C5CCOCC5)C4)c(F)c3)c2c1)c1c(Cl)cncc1Cl` [Example 263, (R)-1-(5-(5-(1-(3,5-dichloropyridin-4-yl)ethoxy)-1H-indazol-3-yl)-3-fluoropyridin-2-yl)-3-(tetrahydro-2H-pyran-4-yl)azetidin-3-amine], in that order: 1 to 50 nM and 1 to 50 nM.
As for `C[C@@H](Oc1ccc2[nH]nc(-c3ccc(N4CC[C@](C)(N)C4)nn3)c2c1)c1c(Cl)cncc1Cl` [Example 407, (S)-1-(6-(5-((R)-1-(3,5-dichloropyridin-4-yl)ethoxy)-1H-indazol-3-yl)pyridazin-3-yl)-3-methylpyrrolidin-3-amine], the Kd at FGFR1 (setting [1]) and on FGFR3 (setting [1]) was 1 to 50 nM throughout.

In general, Kd refers to the free concentration of one partner at which half of the binding sites on the other are occupied at equilibrium, for simple one-to-one binding.
